IC50 and ED50 data for seven compounds are collected here from US5811445A, “Method of preventing abnormal stimulation of AT1 and AT2 receptors” (Roussel Uclaf, priority 1994, dated 1998).

As usually defined, the IC50 is the concentration that gives 50% inhibition.

The target in experiment [1] is T1, AT1 receptor of angiotensin II (Rattus norvegicus, UniProt P25095).
T1 construct: A fresh membrane preparation obtained from rat's liver is used; from tissue; host or cells: rat liver membranes
T1 sequence (P25095 1-359): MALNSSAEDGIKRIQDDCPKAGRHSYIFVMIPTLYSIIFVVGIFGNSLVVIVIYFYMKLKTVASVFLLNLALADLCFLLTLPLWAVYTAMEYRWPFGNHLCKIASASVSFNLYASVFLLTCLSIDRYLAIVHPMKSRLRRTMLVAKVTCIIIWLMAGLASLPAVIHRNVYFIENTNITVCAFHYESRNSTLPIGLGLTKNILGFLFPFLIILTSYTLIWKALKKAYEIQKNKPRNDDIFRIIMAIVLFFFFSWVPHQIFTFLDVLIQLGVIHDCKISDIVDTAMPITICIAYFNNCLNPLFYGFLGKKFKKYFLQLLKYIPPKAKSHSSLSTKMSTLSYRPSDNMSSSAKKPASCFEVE
Briefly: Test on the AT1 receptor of angiotensin II (displacement of 125I angiotensin II, rat liver membranes). Type of experiment: binding. As to the method:
1 - Test on the AT1 -receptor of angiotensin II
A fresh membrane preparation obtained from rat's liver is used. The tissue is ground up in a polytron in a 50 mM Tris buffer pH 7.4, the grinding is followed by 3 centrifugations at 30,000 g for 15 minutes with intermediate take up of the pellets in the Tris buffer pH 7.4.
(The product is first tested with 3×10^-5 M three times). When the tested product displaces more than 50% of the radioactivity specifically bound to the receptor, it is tested again according to a range of 7 concentrations in order to determine the concentration which inhibits by 50% the radioactivity specifically bound to the receptor. In this way the 50% inhibitory concentration is determined).
(§1) After incubation at 25° C. for 150 minutes, placing in a water-bath at 0° C. for 5 minutes, filtration under vacuum, and rinsing with Tris buffer pH 7.4, the radioactivity is counted in the presence of a scintillating solid.

Experiment [2] deals with T2, AT2 receptor of angiotensin II (Oryctolagus cuniculus, UniProt G1T351).
T2 construct: A fresh membrane preparation obtained from rabbit's uterus is used; from tissue; host or cells: uterus membranes of estradiol-treated rabbits
T2 sequence (G1T351 1-363): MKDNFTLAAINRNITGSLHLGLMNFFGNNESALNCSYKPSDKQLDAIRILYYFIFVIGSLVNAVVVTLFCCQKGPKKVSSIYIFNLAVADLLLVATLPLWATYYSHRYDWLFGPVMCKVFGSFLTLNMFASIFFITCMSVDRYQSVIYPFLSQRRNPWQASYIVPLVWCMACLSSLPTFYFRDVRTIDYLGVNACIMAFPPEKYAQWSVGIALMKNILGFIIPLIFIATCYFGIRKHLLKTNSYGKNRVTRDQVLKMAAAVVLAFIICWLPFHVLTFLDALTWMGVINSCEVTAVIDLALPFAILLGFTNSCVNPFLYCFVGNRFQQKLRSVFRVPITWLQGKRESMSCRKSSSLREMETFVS
Briefly: Test on the AT2 receptor of angiotensin II (displacement of 125I angiotensin II, rabbit uterus membranes). Type of experiment: binding. Here is the method: 2) Test on the AT2 receptor of angiotensin II
The tissue is ground up in a polytron in a 50 mM Tris buffer pH 7.4, and the grinding is followed by 3 centrifugations at 30,000 g for 15 minutes, with intermediate take up of the pellets in the Tris buffer pH 7.4.
The homogenate obtained is preincubated for 20 minutes at 25° C. in the presence of 10 mM dithiothreitol, then brought back to 0°-4° C.
The product is first tested at 3.10^-5 M three times. When the tested product displaces more than 50% of the radioactivity specifically bound to the receptor, it is tested again according to a range of 7 concentrations in order to determine the concentration which inhibits by 50% the radioactivity specifically bound to the receptor. In this way the 50% inhibitory concentration is determined.
as §1
For orientation: Displacement assays read how much labelled ligand stays bound in the presence of the test substance.

The subject of experiment [3] is angiotensin II (pressure effects). Briefly: Test for antagonistic activity of angiotensin II in the demedullated rat. The class given is in vivo, Male Sprague-Dawley rats. Conditions: IV, inhibition of pressure effects of angiotensin II (0.75 micrograms/kg), read-out: ID50 IV. As to the method:
3 - Test for antagonistic activity of angiotensin II in the demedullated rat
Male Sprague-Dawley rats (250 to 350 g) are anaesthetized by an intraperitoneal injection with sodium pentobarbital (60 mg/kg). The diastolic arterial pressure is recorded by means of a heparin catheter (PE50) introduced into the left carotid of the animal, and connected to a pressure processor (Gould, Pressure Processor) via a Gould pressure sensor.
A catheter is introduced into the right jugular vein of the animal in order to allow injection of the molecules being studied.
The animal is placed under assisted respiration. A bilateral section of the vagus nerves is carried out. The rat is then demedullated.
After a sufficient stabilization period, study of the antagonism of the molecules vis-a-vis angiotensin II (Hypertensin, CIBA) is carried out in the following manner:
1 - Three consecutive injections of angiotensin II (0.75 micrograms/kg) 15 minutes apart allow a reproducible and stable pressure response to be obtained.
2 - While maintaining a periodicity of 15 minutes for the administration of angiotensin II, the molecules (0.01 to 10 mg/kg) are injected 5 minutes before the angiotensin II.
The pressure effects of angiotensin II in the presence of the antagonist are expressed as a percentage of the pressure effects of angiotensin II administered alone. The 50% inhibitory dose (ID50) of the effect studied is thus determined.
Each animal is considered as its own control.

For experiment [4] the test system is unchanged. Described as above. Type of experiment: in vivo, Male Sprague-Dawley rats. As to conditions: PO, inhibition of pressure effects of angiotensin II (0.75 micrograms/kg), read-out: ID50 PO.
The mark [5] stands for this setting: rat liver membrane, 125I angiotensin II, 25° C., 150 minutes, read-out: AT1 Receptor IC50.
Where [6] appears, read: rabbit uterus membrane (estradiol pre-treated), 125I angiotensin II, 25° C., 150 minutes, read-out: AT2 Receptor IC50.

Read-outs that look alike come from different tables or passages of the source.

Regarding `CCCc1nc(SC)c(C(=O)O)n1Cc1ccc(-c2ccccc2S(=O)(=O)NC(=O)NCC2CCCCC2)cc1` [Example 23, sodium 1-((2'-(((((cyclohexylmethyl)amino)carbonyl)amino)sulphonyl) (1,1'-biphenyl) 4-yl)methyl] 4-(methylthio) 2-propyl 1H-imidazole 5-carboxylate], the IC50 in experiment [1] (setting [5]) amounted to 0.2 nM; in experiment [2] (setting [6]) it was 2 nM. Further, the ED50 in experiment [3] was determined as 0.3 mg/kg; in experiment [4] it was 1.54 mg/kg.
Turning to `CCCc1nc(SC)c(C(=O)O)n1Cc1ccc(-c2ccccc2S(=O)(=O)NC(=O)NCc2ccccc2)cc1` [Example 25, 4-(methylthio) 1-[(2'-(((((phenylmethyl)amino)carbonyl)amino)sulphonyl) (1,1'-biphenyl) 4-yl)methyl] 2-propyl 1H-imidazole 5-carboxylic acid], the IC50 in experiment [1] (setting [5]) came out at 0.2 nM; in experiment [2] (setting [6]), 5.9 nM. The ED50 was determined as 0.22 mg/kg in experiment [3] and 1.45 mg/kg in experiment [4].
In the same order, the values of `CCCc1nc(SC(F)F)c(C(=O)O)n1Cc1ccc(-c2ccccc2S(=O)(=O)NC(=O)NCC2CCCCC2)cc1` [Example 45, 1-((2'-(((((cyclohexylmethyl)amino)carbonyl)amino)sulphonyl) (1,1'-biphenyl 4-yl)methyl) 4-(difluoromethyl)thio) 2-propyl 1H-imidazole 5-carboxylic acid] are 0.07 nM, 1.7 nM, 0.22 mg/kg and 1.1 mg/kg.
As to `CCCc1nc(SC(F)F)c(C(=O)O)n1Cc1ccc(-c2ccccc2S(=O)(=O)NC(=O)NCc2ccccc2)cc1` [Example 46, 4-((difluoromethyl)thio) 1-((2'-(((((phenylmethyl)amino)carbonyl)amino)sulphonyl) (1,1'-biphenyl) 4-yl)methyl) 2-propyl 1H-imidazole 5-carboxylic acid], the IC50 in experiment [1] (setting [5]) is 0.11 nM; in experiment [2] (setting [6]) it was 0.26 nM. The ED50 in experiment [3] worked out at 0.26 mg/kg; in experiment [4] it was 2 mg/kg.
Turning to `CCCc1nc(SC(F)F)c(C(=O)O)n1Cc1ccc(-c2ccccc2S(=O)(=O)NC(=O)NCCc2cccs2)cc1` [Example 47], the IC50 in experiment [1] (setting [5]) was determined as 0.03 nM. Further, the ED50 amounted to 0.33 mg/kg in experiment [3] and 3 mg/kg in experiment [4].
As for `CCCc1nc(SC(F)F)c(C(=O)O)n1Cc1ccc(-c2ccccc2S(=O)(=O)NC(=O)NCc2cccs2)cc1` [Example 50, 4-((difluoromethyl)thio) 2-propyl 1-((2'-(((((2-thienylmethyl)amino)carbonyl)amino)sulphonyl) (1,1'-biphenyl) 4-yl)methyl) 1H-imidazole 5-carboxylic acid], the figures for the concentration for half-maximal inhibition (IC50) in experiment [1] (setting [5]) and in experiment [2] (setting [6]) were 0.06 nM and 7.4 nM, respectively. The ED50 in experiment [3] was 0.13 mg/kg.
Take `CCCCc1nc(SC)c(C(=O)O)n1Cc1ccc(-c2ccccc2S(=O)(=O)NC(=O)NCC2CCCCC2)cc1` [Example 75, 2-butyl 1-((2'-(((((cyclohexylmethyl)amino)carbonyl)amino)sulphonyl) (1,1'-biphenyl) 4-yl)methyl) 4-(methylthio) 1H-imidazole 5-carboxylic acid]: the IC50 in experiment [1] (products P1 to P13, expressed in nM, read-out: On AT1 receptor IC50) was determined as 0.23 nM; in experiment [1] (setting [5]), 0.05 nM; in experiment [2] (products P1 to P13, expressed in nM, read-out: On AT2 receptor IC50) it was 17 nM. Moreover, the ED50 in experiment [3] is 0.35 mg/kg.
